In brackets after ≈: the same amount, converted by molar mass.
What was measured:
Candida albicans [1] = experiment: Minimum inhibitory concentration of compound for antifungal activity against Candida albicans 2; type: functional
Candida albicans [2] = experiment: Minimum inhibitory concentration of compound for antifungal activity against Candida albicans 1; type: functional
Saccharomyces cerevisiae = experiment: Antifungal activity against yeast expressed as negative log (pLAD value).; type: functional
Candida albicans [3] = experiment: Minimum inhibitory concentration of compound for antifungal activity against Candida albicans 4; type: functional
Candida tropicalis = experiment: Minimum inhibitory concentration of compound for antifungal activity against Candida tropicalis; type: functional
Trichophyton rubrum = experiment: Minimum inhibitory concentration of compound for antifungal activity against Trichophyton rubrum; type: functional
Pichia kudriavzevii = experiment: Minimum inhibitory concentration of compound for antifungal activity against Candida krusei; type: functional
Sporothrix schenckii = experiment: Minimum inhibitory concentration of compound for antifungal activity against Sporothrix schenck ii; type: functional
[4] = Antifungal activity against molds expressed as negative log (pLAD value).; type: functional, mould
Candida parapsilosis = experiment: Minimum inhibitory concentration of compound for antifungal activity against Candida parapsilosis; type: functional; conditions: Lodderomyces parapsilosis
Nakaseomyces glabratus = experiment: Minimum inhibitory concentration of compound for antifungal activity against Candida glabrata; type: functional
Microsporum canis = experiment: Minimum inhibitory concentration of compound for antifungal activity against Mucosporam canis; type: functional
Aspergillus fumigatus = experiment: Minimum inhibitory concentration of compound for antifungal activity against Aspergillus fumigatus; type: functional
Cryptococcus neoformans = experiment: Minimum inhibitory concentration of compound for antifungal activity against Cryptococcus neoformans; type: functional
Kluyveromyces marxianus = experiment: Minimum inhibitory concentration of compound for antifungal activity against Candida kefyr; type: functional
Trichophyton benhamiae = experiment: Minimum inhibitory concentration of compound for antifungal activity against Trichophyton mentagrophytes; type: functional, Arthroderma benhamiae
Candida albicans [5] = experiment: Inhibition of ergosterol synthesis as measured in Candida albicans subcellular screen; type: functional

SMILES | MIC (Candida albicans [1]) | MIC (Candida albicans [2]) | pLADy (Saccharomyces cerevisiae) | MIC (Candida albicans [3]) | MIC (Candida tropicalis) | MIC (Trichophyton rubrum) | MIC (Pichia kudriavzevii) | MIC (Sporothrix schenckii) | pLADm [4] | MIC (Candida parapsilosis) | MIC (Nakaseomyces glabratus) | MIC (Microsporum canis) | MIC (Aspergillus fumigatus) | MIC (Cryptococcus neoformans) | MIC (Kluyveromyces marxianus) | MIC (Trichophyton benhamiae) | IC50 (Candida albicans [5])
CCCCOc1ccc(S(=O)(=O)N(Cc2cncn2C)C(C)C2CCCCC2)cc1 (centres undefined) | < 0.1 µM | > 10 µM | 6.6 | 10 µM (≈ 4.34 µg/mL) | 0.1 µM (≈ 0.0434 µg/mL) | 1 µM (≈ 0.434 µg/mL) | 1 µM (≈ 0.434 µg/mL) | > 10 µM | 4.8 | 0.1 µM (≈ 0.0434 µg/mL) | 1 µM (≈ 0.434 µg/mL) | 1 µM (≈ 0.434 µg/mL) | > 10 µM | 1 µM (≈ 0.434 µg/mL) | < 0.1 µM | 10 µM (≈ 4.34 µg/mL) | 
CCCCCc1ccc(S(=O)(=O)N(CCC(C)C)Cc2c[nH]cn2)cc1 |  |  | 6.4 |  |  |  |  |  | 5 |  |  |  |  |  |  |  | 120 nM
CCCCOc1ccc(S(=O)(=O)N(Cc2c[nH]cn2)[C@H](C)C2CCCCC2)cc1 |  |  | 6.13 |  |  |  |  |  | 4.6 |  |  |  |  |  |  |  | 
CCCCOc1ccc(S(=O)(=O)N(CCc2ccc(F)cc2)Cc2nc[nH]n2)cc1 |  |  | 3.95 |  |  |  |  |  | 3.92 |  |  |  |  |  |  |  | 
CC(=O)N1CCN(c2ccc(OC[C@H]3CO[C@](Cn4ccnc4)(c4ccc(Cl)cc4Cl)O3)cc2)CC1 [KETOCONAZOLE] | 0.1 µM (≈ 0.0531 µg/mL) | > 10 µM |  | 10 µM (≈ 5.31 µg/mL) | 10 µM (≈ 5.31 µg/mL) | 0.1 µM (≈ 0.0531 µg/mL) | 1 µM (≈ 0.531 µg/mL) | 10 µM (≈ 5.31 µg/mL) |  | 0.1 µM (≈ 0.0531 µg/mL) | 10 µM (≈ 5.31 µg/mL) | 1 µM (≈ 0.531 µg/mL) | 10 µM (≈ 5.31 µg/mL) | 0.1 µM (≈ 0.0531 µg/mL) | < 0.1 µM | 10 µM (≈ 5.31 µg/mL) | 
CCCCCCN(Cc1c[nH]cn1)S(=O)(=O)c1ccc(OCCCC)cc1 |  |  | 6.1 |  |  |  |  |  | 5.2 |  |  |  |  |  |  |  | 76 nM
CCCCOc1ccc(S(=O)(=O)N(Cc2c[nH]cn2)C(C(C)C)C(C)C)cc1 | < 0.1 µM | > 10 µM | 6.7 | < 0.1 µM | 0.1 µM (≈ 0.0408 µg/mL) | 1 µM (≈ 0.408 µg/mL) | 10 µM (≈ 4.08 µg/mL) | > 10 µM | 5 | 0.1 µM (≈ 0.0408 µg/mL) | 10 µM (≈ 4.08 µg/mL) | 1 µM (≈ 0.408 µg/mL) | > 10 µM | 1 µM (≈ 0.408 µg/mL) | < 0.1 µM | 10 µM (≈ 4.08 µg/mL) | 73 nM
Brc1ccc(CCN(Cc2ccc(-c3ccccc3)cc2)Cc2c[nH]cn2)cc1 |  |  | 4.9 |  |  |  |  |  | 5.8 |  |  |  |  |  |  |  | 1240 nM
CCCCOc1ccc(S(=O)(=O)N(CC2CCCCC2)C(c2ccccc2)c2c[nH]cn2)cc1 (centres undefined) |  |  | 5.1 |  |  |  |  |  | 4 |  |  |  |  |  |  |  | 
CCCCOc1ccc(S(=O)(=O)N(Cc2c[nH]cn2)[C@@H](C)C2CCCCC2)cc1 |  |  | 5.9 |  |  |  |  |  | 5 |  |  |  |  |  |  |  | 
CCCCOc1ccc(S(=O)(=O)N(CCc2cccs2)Cc2c[nH]cn2)cc1 |  |  | 6.5 |  |  |  |  |  | 4.4 |  |  |  |  |  |  |  | 11 nM
CC(C)C(C(C)C)N(Cc1c[nH]cn1)S(=O)(=O)c1cc(Cl)sc1Cl |  |  | 6.3 |  |  |  |  |  | 4.5 |  |  |  |  |  |  |  | 71 nM
CCCCOc1ccc(S(=O)(=O)N(CCc2ccccc2F)Cc2[nH]cnc2C)cc1 |  |  | <4 |  |  |  |  |  | <4 |  |  |  |  |  |  |  | 
CCCCOc1ccc(S(=O)(=O)N(CCCCc2ccccc2)Cc2c[nH]cn2)cc1 |  |  | 5.4 |  |  |  |  |  | 5.2 |  |  |  |  |  |  |  | 27 nM
CCC(C)n1ncn(-c2ccc(N3CCN(c4ccc(OCC5COC(Cn6cncn6)(c6ccc(Cl)cc6Cl)O5)cc4)CC3)cc2)c1=O (centres undefined) [ITRACONAZOLE] | < 0.1 µM | > 10 µM |  | > 10 µM | 0.1 µM (≈ 0.0706 µg/mL) | < 0.1 µM | 1 µM (≈ 0.706 µg/mL) | 10 µM (≈ 7.06 µg/mL) |  | < 0.1 µM | 1 µM (≈ 0.706 µg/mL) | < 0.1 µM | 1 µM (≈ 0.706 µg/mL) | < 0.1 µM | < 0.1 µM | 0.1 µM (≈ 0.0706 µg/mL) | 
CCCCOc1ccc(S(=O)(=O)N(Cc2c[nH]cn2)C(C2CCCCC2)C2CCCCC2)cc1 |  |  | 5 |  |  |  |  |  | 4 |  |  |  |  |  |  |  | 
CCCCOc1ccc(S(=O)(=O)N(CC2CCCCC2)C(C)c2c[nH]cn2)cc1 (centres undefined) |  |  | 6.3 |  |  |  |  |  | 4 |  |  |  |  |  |  |  | 
CCCCOc1ccc(S(=O)(=O)N(Cc2c[nH]cn2)CC2CCCCC2)cc1 |  |  | 6.1 |  |  |  |  |  | 3.6 |  |  |  |  |  |  |  | 
CCCCOc1ccc(S(=O)(=O)N(CCc2ccc(F)cc2)Cc2c[nH]cn2)cc1 | < 0.1 µM | > 10 µM | 6.2 | 10 µM (≈ 4.32 µg/mL) | < 0.1 µM | 1 µM (≈ 0.432 µg/mL) | > 10 µM | > 10 µM | 4.6 | 1 µM (≈ 0.432 µg/mL) | 10 µM (≈ 4.32 µg/mL) | 10 µM (≈ 4.32 µg/mL) | > 10 µM | 1 µM (≈ 0.432 µg/mL) | < 0.1 µM | > 10 µM | 26 nM
CCCCOc1ccc(S(=O)(=O)N(CCc2ccc(F)cc2)CC2=CNC(C)N2)cc1 (centres undefined) |  |  | 3.95 |  |  |  |  |  | 3.92 |  |  |  |  |  |  |  | 
CCCCOc1ccc(S(=O)(=O)N(Cc2c[nH]cn2)C(CC)C2CCCCC2)cc1 (centres undefined) | < 0.1 µM | > 10 µM | >6.8 | < 0.1 µM | 1 µM (≈ 0.434 µg/mL) | 1 µM (≈ 0.434 µg/mL) | 1 µM (≈ 0.434 µg/mL) | > 10 µM | 5 | < 0.1 µM | 1 µM (≈ 0.434 µg/mL) | 1 µM (≈ 0.434 µg/mL) | > 10 µM | 1 µM (≈ 0.434 µg/mL) | < 0.1 µM | 10 µM (≈ 4.34 µg/mL) | 
OC(Cn1cncn1)(Cn1cncn1)c1ccc(F)cc1F [FLUCONAZOLE] | 1 µM (≈ 0.306 µg/mL) | > 10 µM |  | 1 µM (≈ 0.306 µg/mL) | > 10 µM | 10 µM (≈ 3.06 µg/mL) | > 10 µM | > 10 µM |  | 10 µM (≈ 3.06 µg/mL) | > 10 µM | 10 µM (≈ 3.06 µg/mL) | > 10 µM | 10 µM (≈ 3.06 µg/mL) | 1 µM (≈ 0.306 µg/mL) | > 10 µM | 
